Ends that are not written are not given here.
How the values were obtained:
Assay type in all cases: in vivo, female BALB/c mice
[1] = system: orthotopic 4T1 breast tumors; assay: Spontaneous lung metastasis model: tumor volume and pulmonary metastatic nodules; details: for Number of metastatic nodules: Fig. 5e, pulmonary
Description: For the in vivo investigation of pulmonary metastasis, 4T1 cells (1 × 10^6 cells) were injected into the third mammary fat pad of female BALB/c mice (6–8 weeks). […] Tumor volumes were recorded every other day. On day 28, lungs were harvested and fixed with Bouin’s solutions. The pulmonary metastatic nodules were counted and analyzed by hematoxylin-eosin staining.

LOX = assay: Immunofluorescence of LOX in lung tissues
Description: (§1) To explore the “seed-soil” crosstalk, the serum, intra-tumoral, and pulmonary concentration of LOX was determined using enzyme-linked immunosorbent assay kits (CSB-EL013041MO, CUSABIO, https://www.cusabio.com/) according to the manufacturer’s instructions. The serum, intra-tumoral, and pulmonary concentration of TGF-β was determined using mouse TGF-β ELISA Kit (Cat No.: HB1328-Mu). The formation of PMN was investigated through lung slices subjected to immunofluorescent staining of LOX, E-cadherin, and S100A8. For immunofluorescent staining of E-cadherin, Lung slices were stained with CoraLite® Plus 647 anti-mouse CD324 (E-cadherin, 1:300 dilution). For immunofluorescent staining of LOX and S100A8, Lung slices were separately stained with anti-LOX recombinant rabbit monoclonal antibody (1:500 dilution) or S100-A8 / MRP8 rabbit pAb (1:500 dilution), followed by staining with goat anti-rabbit IgG H&L Alexa Fluor® 647 (1:1000 dilution), respectively. Single-cell suspensions of lungs were analyzed using flow cytometry to assess BMDC (CD11b^+Gr1^+) with PE anti-mouse/human CD11b antibody (1:300 dilution) and FITC anti-mouse Ly-6G/Ly-6C (Gr-1) antibody (1:300 dilution). Chemokine concentrations in lungs were determined using a mouse CXCL12 ELISA kit.

[2] = system: orthotopic 4T1 breast tumors; assay: Tumor-infiltrating CD8+ T lymphocytes, Tregs and MDSCs (flow cytometry); details: for CD3+CD8+ T cells (%) in tumor / CD11b+Gr1+ MDSCs (%) in tumor / Tregs (%) in CD4+ T cells: Supplementary Fig. 16a; for intratumoral Tregs and MDSCs: three i.v. cycles days 7, 14, 21, day 28, no PDT
Description: 4T1 cells (1 × 10^6 cells) were injected into the third mammary fat pad of female BALB/c mice (6–8-week). When tumor volumes reached nearly […] on day 7 after tumor inoculation, mice were randomly divided into 8 groups (n = 8 per group). For four groups without laser irradiation (−), mice were intravenously injected with the following samples: (1) saline on day 7, 14, 21, and 28, (2) P-PS on day 7, 14, 21, and 28, (3) P-BS-PS on day 7, 14, 21, and 28, or (4) P-BS-CM1 on day 7, 14, 21, and 28, followed by P-PS-CM2 on day 8, 15, 22, and 29 (5 mg/kg BS equivalence, CM1:CM2 1:1 mol%, 2.5 mg/kg PS equivalence), respectively. For four groups with laser irradiation (+), mice were treated with the same regimens and irradiated at 650 nm laser (580 mW/cm^2, 5 min) on day 9, 16, 23 and 30. Tumor volumes and mice survivals were recorded every other day. For the investigation of immune response and lung metastasis, 4T1 tumor-bearing female BALB/c mice (6–8-week, tumor volume~100 mm^3) were randomly divided into 8 groups (n = 5 per group) and given three rounds of above treatments. On day 28, lungs and tumors were harvested. lungs were fixed with Bouin’s solution. The pulmonary metastatic nodules were counted and analyzed by hematoxylin-eosin staining. Single-cell suspensions of tumor tissues were stained with anti-CD45-PerCP/Cy5.5 (1:300 dilution) and anti-calreticulin recombinant rabbit monoclonal antibody (1:500 dilution) at 4 °C for 1 h, and then stained with goat anti-rabbit IgG H&L Alexa Fluor® 647 (1:1000 dilution, 4 °C, 45 min), followed by flow cytometry analysis. ATP and HMGB1 concentrations in the supernatant of cell suspension were measured using a luciferase-based ATP assay kit and a mouse HMGB1 ELISA kit, respectively. Single-cell suspensions of tumors were stained with FITC anti-mouse CD3 antibody (1:300 dilution), PerCP/Cyanine5.5 anti-mouse CD4 antibody (1:300 dilution), anti-CD8α-APC (1:300 dilution), and anti-Foxp3-PE (1:300 dilution) for flow cytometry analysis of T cell subtypes (CD8^+ T cells, CD4^+ effector T cells, and Foxp3^+ regulatory T cells), and stained with PE anti-mouse/human CD11b antibody (1:300 dilution) and FITC anti-mouse Ly-6G/Ly-6C (Gr-1) antibody (1:300 dilution) for flow cytometry analysis of MDSCs (CD11b^+Gr1^+). Cytotoxic T cells in tumor tissues were investigated with immunofluorescent staining of IFN-γ and flow cytometry analysis using anti-IFN-γ-PE (1:300 dilution). For CD8-depletion assay, 4T1 tumor-bearing female BALB/c mice (6–8-week, tumor volume~100 mm^3) were randomly divided into 3 groups (n = 8 per group). Mice were intravenously given four doses of P-BS-CM1 on day 7, 14, 21 and 28, combined with P-PS-CM2 on day 8, 15, 22 and 29 (5 mg/kg BS equivalence, CM1:CM2 1:1 mol%, 2.5 mg/kg PS equivalence) in the presence or absence of InvivoMab anti-mouse CD8α (100 μg/mice). Mice were irradiated at 650 nm laser (580 mW/cm^2, 5 min) on day 9, 16, 23 and 30. Tumor volumes and mice survivals were recorded every other day.

TGF-β = TGF-β ELISA (intra-tumoral, serum, pulmonary); parameters: Pulmonary TGF-β: unit not given beside the values; Intratumoral TGF-β / Systemic TGF-β: unit not given here; details: for Systemic TGF-β: serum
Description: 4T1 cells (1 × 10^6 cells) were injected into the third mammary fat pad of female BALB/c mice (6–8-week). […] On day 28, blood samples, lungs and tumors were harvested.
as §1

Q: Which “Number of metastatic nodules” value ([1]; mouse 1) does the source give for LGASWHRPDKCCLGYQKRPLPA [Free BS] here?
A: 31

Q: What about the “Number of metastatic nodules” value ([1]; mouse 2) of the same substance?
A: 28

Q: And the “Number of metastatic nodules” value ([1]; mouse 3)?
A: 25

Q: What about the “Number of metastatic nodules” value ([1]; mouse 4) of the same substance?
A: 36

Q: What about the “Number of metastatic nodules” value ([1]; mouse 5) of the same substance?
A: 27

Q: And the “lung metastatic nodule burden at endpoint” value ([1]; three weekly i.v. cycles, day 28)?
A: high metastatic nodule burdens

Q: And the “Mean fluorescence intensity of LOX in lung tissues” value (“Mean fluorescence intensity of LOX” below) (LOX; replicate 1)?
A: 145.665

Q: What about the “Mean fluorescence intensity of LOX” value (LOX; replicate 2) of the same substance?
A: 136.817

Q: And the “Mean fluorescence intensity of LOX” value (LOX; replicate 3)?
A: 150.369

Q: What about the “Mean fluorescence intensity of LOX” value (LOX; replicate 4) of the same substance?
A: 132.821

Q: What about the “Mean fluorescence intensity of LOX” value (LOX; replicate 5) of the same substance?
A: 140.21

Q: And the “CD3+CD8+ T cells (%) in tumor” value ([2]; replicate 1 of 5)?
A: 0.123%

Q: What about the “CD11b+Gr1+ MDSCs (%) in tumor” value ([2]; replicate 1 of 5) of the same substance?
A: 19.37%

Q: What about the “Tregs (%) in CD4+ T cells” value ([2]; replicate 1 of 5) of the same substance?
A: 22.46%

Q: And the “CD3+CD8+ T cells (%) in tumor” value ([2]; replicate 2 of 5)?
A: 0.1188%

Q: What about the “CD11b+Gr1+ MDSCs (%) in tumor” value ([2]; replicate 2 of 5) of the same substance?
A: 18.11%

Q: What about the “Tregs (%) in CD4+ T cells” value ([2]; replicate 2 of 5) of the same substance?
A: 19.38%

Q: What about the “CD3+CD8+ T cells (%) in tumor” value ([2]; replicate 3 of 5) of the same substance?
A: 0.1444%

Q: And the “CD11b+Gr1+ MDSCs (%) in tumor” value ([2]; replicate 3 of 5)?
A: 26.3%

Q: And the “Tregs (%) in CD4+ T cells” value ([2]; replicate 3 of 5)?
A: 19.75%

Q: And the “CD3+CD8+ T cells (%) in tumor” value ([2]; replicate 4 of 5)?
A: 0.1085%

Q: And the “CD11b+Gr1+ MDSCs (%) in tumor” value ([2]; replicate 4 of 5)?
A: 21.21%

Q: What about the “Tregs (%) in CD4+ T cells” value ([2]; replicate 4 of 5) of the same substance?
A: 21.91%

Q: And the “CD3+CD8+ T cells (%) in tumor” value ([2]; replicate 5 of 5)?
A: 0.1016%

Q: What about the “CD11b+Gr1+ MDSCs (%) in tumor” value ([2]; replicate 5 of 5) of the same substance?
A: 17.61%

Q: And the “Tregs (%) in CD4+ T cells” value ([2]; replicate 5 of 5)?
A: 22.71%

Q: And the “intratumoral Tregs and MDSCs” value [2]?
A: not affected

Q: What about the “Intratumoral TGF-β” value (TGF-β; replicate 1) of the same substance?
A: 20.98

Q: And the “Pulmonary TGF-β” value (TGF-β; replicate 1)?
A: 9.12

Q: And the “Intratumoral TGF-β” value (TGF-β; replicate 2)?
A: 26.43

Q: And the “Pulmonary TGF-β” value (TGF-β; replicate 2)?
A: 10.3

Q: What about the “Intratumoral TGF-β” value (TGF-β; replicate 3) of the same substance?
A: 26.11

Q: And the “Pulmonary TGF-β” value (TGF-β; replicate 3)?
A: 11.1

Q: What about the “Intratumoral TGF-β” value (TGF-β; replicate 4) of the same substance?
A: 22.3

Q: And the “Pulmonary TGF-β” value (TGF-β; replicate 4)?
A: 10.7

Q: What about the “Intratumoral TGF-β” value (TGF-β; replicate 5) of the same substance?
A: 20.45

Q: And the “Pulmonary TGF-β” value (TGF-β; replicate 5)?
A: 8.9

Q: What about the “Systemic TGF-β” value (TGF-β; replicate 1) of the same substance?
A: 321.2

Q: And the “Systemic TGF-β” value (TGF-β; replicate 2)?
A: 324.5

Q: What about the “Systemic TGF-β” value (TGF-β; replicate 3) of the same substance?
A: 372.1

Q: And the “Systemic TGF-β” value (TGF-β; replicate 4)?
A: 355.2

Q: What about the “Systemic TGF-β” value (TGF-β; replicate 5) of the same substance?
A: 352

Q: With “P-BS: HPMA copolymer-BS conjugate, ~6 BS grafts per polymer (LGASWHRPDKCCLGYQKRPLPA; not fully specified (residues 11, 12); also: about 6 peptides grafted on HPMA copolymer via cysteine-maleimide thioether links)” as the substance, how does the “Number of metastatic nodules” value ([1]; mouse 1) read?
A: 15

Q: What about the “Number of metastatic nodules” value ([1]; mouse 2) of the same substance?
A: 17

Q: What about the “Number of metastatic nodules” value ([1]; mouse 3) of the same substance?
A: 22

Q: And the “Number of metastatic nodules” value ([1]; mouse 4)?
A: 19

Q: What about the “Number of metastatic nodules” value ([1]; mouse 5) of the same substance?
A: 28

Q: What about the “Mean fluorescence intensity of LOX” value (LOX; replicate 1) of the same substance?
A: 121.535

Q: And the “Mean fluorescence intensity of LOX” value (LOX; replicate 2)?
A: 108.102

Q: What about the “Mean fluorescence intensity of LOX” value (LOX; replicate 3) of the same substance?
A: 109.056

Q: And the “Mean fluorescence intensity of LOX” value (LOX; replicate 4)?
A: 97.784

Q: And the “Mean fluorescence intensity of LOX” value (LOX; replicate 5)?
A: 101.188

Q: And the “CD3+CD8+ T cells (%) in tumor” value ([2]; replicate 1 of 5)?
A: 0.1153%

Q: And the “CD11b+Gr1+ MDSCs (%) in tumor” value ([2]; replicate 1 of 5)?
A: 12.4%

Q: What about the “Tregs (%) in CD4+ T cells” value ([2]; replicate 1 of 5) of the same substance?
A: 15.81%

Q: And the “CD3+CD8+ T cells (%) in tumor” value ([2]; replicate 2 of 5)?
A: 0.2531%

Q: And the “CD11b+Gr1+ MDSCs (%) in tumor” value ([2]; replicate 2 of 5)?
A: 14.84%

Q: And the “Tregs (%) in CD4+ T cells” value ([2]; replicate 2 of 5)?
A: 15.31%

Q: What about the “CD3+CD8+ T cells (%) in tumor” value ([2]; replicate 3 of 5) of the same substance?
A: 0.2407%

Q: What about the “CD11b+Gr1+ MDSCs (%) in tumor” value ([2]; replicate 3 of 5) of the same substance?
A: 14.8%

Q: And the “Tregs (%) in CD4+ T cells” value ([2]; replicate 3 of 5)?
A: 13.12%

Q: What about the “CD3+CD8+ T cells (%) in tumor” value ([2]; replicate 4 of 5) of the same substance?
A: 0.1577%

Q: And the “CD11b+Gr1+ MDSCs (%) in tumor” value ([2]; replicate 4 of 5)?
A: 14.66%

Q: What about the “Tregs (%) in CD4+ T cells” value ([2]; replicate 4 of 5) of the same substance?
A: 11.55%

Q: And the “CD3+CD8+ T cells (%) in tumor” value ([2]; replicate 5 of 5)?
A: 0.2259%

Q: And the “CD11b+Gr1+ MDSCs (%) in tumor” value ([2]; replicate 5 of 5)?
A: 15.36%

Q: And the “Tregs (%) in CD4+ T cells” value ([2]; replicate 5 of 5)?
A: 16.67%

Q: And the “intratumoral Tregs and MDSCs” value [2]?
A: moderately decreased

Q: And the “Intratumoral TGF-β” value (TGF-β; replicate 1)?
A: 15.43

Q: And the “Pulmonary TGF-β” value (TGF-β; replicate 1)?
A: 5.4

Q: And the “Intratumoral TGF-β” value (TGF-β; replicate 2)?
A: 15.3

Q: And the “Pulmonary TGF-β” value (TGF-β; replicate 2)?
A: 5.1

Q: What about the “Intratumoral TGF-β” value (TGF-β; replicate 3) of the same substance?
A: 19.3

Q: What about the “Pulmonary TGF-β” value (TGF-β; replicate 3) of the same substance?
A: 7.1

Q: What about the “Intratumoral TGF-β” value (TGF-β; replicate 4) of the same substance?
A: 17.3

Q: What about the “Pulmonary TGF-β” value (TGF-β; replicate 4) of the same substance?
A: 6.3

Q: And the “Intratumoral TGF-β” value (TGF-β; replicate 5)?
A: 15.33

Q: And the “Pulmonary TGF-β” value (TGF-β; replicate 5)?
A: 4.2

Q: And the “Systemic TGF-β” value (TGF-β; replicate 1)?
A: 276.4

Q: What about the “Systemic TGF-β” value (TGF-β; replicate 2) of the same substance?
A: 245.1

Q: What about the “Systemic TGF-β” value (TGF-β; replicate 3) of the same substance?
A: 225.1

Q: What about the “Systemic TGF-β” value (TGF-β; replicate 4) of the same substance?
A: 267.3

Q: And the “Systemic TGF-β” value (TGF-β; replicate 5)?
A: 241.2
